{"source": "patent US9895381B2", "about": "“Vitamin D receptor agonists to treat diseases involving CXCL12 activity” (Salk Institute for Biological Studies, priority 2013, dated 2018)", "key": {"MiaPaCa-2 cells": {"test_system": "MiaPaCa-2 cells", "assay": "CAPSC conditioned media experiments", "format": "cell-based, human", "settings": "CM from Cal-treated CAPSCs (100 nM, 48 h), 48 h on MiaPaCa-2", "method": "Primary […] were grown to 100% confluency. Fresh media was added to the cultures, and at this time, […] were treated with 100 nM calcipotriol. After 48 h, conditioned media was harvested, sterile-filtered through 0.45 μm pores, and added to pancreatic cancer cells (PCCs) at 50-60% confluency. PCCs were treated directly with 100 nM calcipotriol at the onset of conditioned media incubation. After 48 h, PCCs were harvested and RNA and protein isolated for analysis."}, "wild type mice": {"test_system": "wild type mice", "assay": "Cerulein-induced acute pancreatitis model", "format": "in vivo, mouse", "settings": "cerulein with daily 40 μg/kg calcipotriol", "method": "Tissues were embedded in O.C.T. and frozen sections were fixed in ice-cold methanol at −20° C. for 20 min. Sections were blocked in PBS+0.2% BSA+0.05% Triton X-100 (blocking solution) for 1 h at room temperature. Primary antibody dilutions in blocking solution were as follows: anti-phospho-STAT3(Tyr705), 1:100 (Cell Signaling Technology); anti-Collagen I, 1:500 (Abcam), anti-GFAP, 1:100 (Abcam); anti-CD45, 1:100 (BD Pharmingen). Primary antibody incubations were performed in a humidified chamber at 4° C. overnight. Sections were washed 3 times with PBS+0.05% Triton X-100, then incubated in secondary antibodies for 1 h at room temperature, protected from light. Secondary antibodies used included Alexa Fluor 594 goat anti-rabbit IgG, Alexa Fluor 488 goat anti-rabbit IgG, Alexa Fluor 594 goat anti-rat IgG, and Alexa Fluor 488 goat anti-mouse IgG (Molecular Probes) and were used at 1:250 in blocking solution. […] Fluorescence was visualized on a Leica DM5000B fluorescent microscope and quantified using ImageJ. […] Cerulein injections were administered as 6 hourly injections 2 times per week for 12 weeks and analyzed 1 week after final cerulein injection, adapted from previous studies (Sah et al., 2013; Treiber et al., 2011; Yoo et al., 2005). […] Images were obtained and quantification of Sirius Red-positive area performed using Nuance 3.0.1.2 software. […]"}, "primary human CAPSCs": {"test_system": "primary human CAPSCs", "assay": "Lipid droplet accumulation assay (BODIPY 493/503)", "format": "cell-based", "settings": "100 nM Cal, 48 h; samples responding / samples tested", "method": "Primary human CAPSCs were seeded onto glass coverslips. After overnight attachment, cells were treated with vehicle (DMSO) or 100 nM calcipotriol for 48 h. Media was aspirated, cells were washed twice with PBS (Gibco) and fixed in 10% buffered formalin at room temperature for 15 minutes. Fixative was removed and cells were washed three times with PBS. Cells were then stained with 1 μg/ml 4,4-Difluoro-1,3,5,7,8-Pentamethyl-4-Bora-3a,4a-Diaza-s-Indacene (BODIPY 493/503, Molecular Probes) for 1 h at room temperature, protected from light. Dye was removed and cells were washed three times with PBS, then mounted using Vectastain mounting medium (Vector Labs). Fluorescence was visualized through the GFP filter on a Leica DM5000B fluorescent microscope and quantification performed using ImageJ."}, "hPSC cell line": {"test_system": "hPSC cell line", "assay": "Chromatin immunoprecipitation for VDR and SMAD3", "format": "cell-based, human", "settings": "100 nM Cal 16 h pretreatment, 1 ng/ml TGFβ 4 h", "method": "The hPSC cell line was utilized for chromatin immunoprecipitation, which was described previously (Barish et al., 2010). Briefly, cells were fixed in 1% formaldehyde, and nuclei were isolated and lysed in buffer containing 1% SDS, 10 mM EDTA, 50 mM Tris-HCl pH 8.0, and protease inhibitors, and sheared with a Diagenode Bioruptor to chromatin fragment sizes of 200-1000 base pairs. Chromatin was immunoprecipitated with antibodies to VDR (C-20, Santa Cruz Biotechnology), SMAD3 (Abcam), or rabbit IgG (Santa Cruz Biotechnology)."}}, "data": [{"compound": "C=C1/C(=C\\C=C2/CCC[C@]3(C)[C@@H]([C@H](C)/C=C/[C@@H](O)C4CC4)CC[C@@H]23)C[C@@H](O)C[C@@H]1O", "note": "[Cal, 1α,24-(OH)2-24-cyclopropyl-D3]", "values": [{"measurement": "gene expression changes induced by CAPSC conditioned media", "setting": "MiaPaCa-2 cells", "result": "largely abrogated"}, {"measurement": "activation-associated changes in PSC gene expression", "setting": "wild type mice", "result": "impaired activation-associated changes in PSC gene expression"}, {"measurement": "leukocyte infiltration and fibrosis", "setting": "wild type mice", "result": "reduced leukocyte infiltration and fibrosis"}, {"measurement": "lipid droplet formation, primary patient samples", "setting": "primary human CAPSCs", "result": "19/27"}, {"measurement": "SMAD3 binding in promoter regions of fibrogenic genes (HAS2, COL1A1)", "setting": "hPSC cell line", "result": "decreasing SMAD3 binding"}, {"measurement": "VDR binding in promoter regions of fibrogenic genes (HAS2, COL1A1)", "setting": "hPSC cell line", "result": "increased VDR binding"}]}]}
